Results: US20240150377A1, “MODULATORS OF CYSTIC FIBROSIS TRANSMEMBRANE CONDUCTANCE REGULATOR” (VERTEX PHARMACEUTICALS INCORPORATED, priority 2020, published 2024)

Each compound was assayed against T1, CFTR (Homo sapiens, UniProt P13569, DEL508-508) (assay: HBE2 assay: Ussing chamber assay of CFTR-mediated short-circuit currents). Details: 3 μM corrector; F508del/MF-HBE cells; with 44 nM potentiator, 18-24 hours, 20% human serum.
T1 construct: endogenous in cells; host or cells: primary human bronchial epithelial cells from CF subjects (F508del/MF-HBE), differentiated at air-liquid interface
Assay type: cell-based
Outline: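 Corrector activity read as CFTR-dependent ISC (μA/cm^2): peak forskolin current minus post-inhibitor steady state. Measured at 37 °C, voltage clamp at 0 mV, on F508del/MF-HBE epithelia grown >14 days air-liquid interface in Ussing chambers.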

T1 sequence (P13569 with tags, fused parts or gaps DEL508-508): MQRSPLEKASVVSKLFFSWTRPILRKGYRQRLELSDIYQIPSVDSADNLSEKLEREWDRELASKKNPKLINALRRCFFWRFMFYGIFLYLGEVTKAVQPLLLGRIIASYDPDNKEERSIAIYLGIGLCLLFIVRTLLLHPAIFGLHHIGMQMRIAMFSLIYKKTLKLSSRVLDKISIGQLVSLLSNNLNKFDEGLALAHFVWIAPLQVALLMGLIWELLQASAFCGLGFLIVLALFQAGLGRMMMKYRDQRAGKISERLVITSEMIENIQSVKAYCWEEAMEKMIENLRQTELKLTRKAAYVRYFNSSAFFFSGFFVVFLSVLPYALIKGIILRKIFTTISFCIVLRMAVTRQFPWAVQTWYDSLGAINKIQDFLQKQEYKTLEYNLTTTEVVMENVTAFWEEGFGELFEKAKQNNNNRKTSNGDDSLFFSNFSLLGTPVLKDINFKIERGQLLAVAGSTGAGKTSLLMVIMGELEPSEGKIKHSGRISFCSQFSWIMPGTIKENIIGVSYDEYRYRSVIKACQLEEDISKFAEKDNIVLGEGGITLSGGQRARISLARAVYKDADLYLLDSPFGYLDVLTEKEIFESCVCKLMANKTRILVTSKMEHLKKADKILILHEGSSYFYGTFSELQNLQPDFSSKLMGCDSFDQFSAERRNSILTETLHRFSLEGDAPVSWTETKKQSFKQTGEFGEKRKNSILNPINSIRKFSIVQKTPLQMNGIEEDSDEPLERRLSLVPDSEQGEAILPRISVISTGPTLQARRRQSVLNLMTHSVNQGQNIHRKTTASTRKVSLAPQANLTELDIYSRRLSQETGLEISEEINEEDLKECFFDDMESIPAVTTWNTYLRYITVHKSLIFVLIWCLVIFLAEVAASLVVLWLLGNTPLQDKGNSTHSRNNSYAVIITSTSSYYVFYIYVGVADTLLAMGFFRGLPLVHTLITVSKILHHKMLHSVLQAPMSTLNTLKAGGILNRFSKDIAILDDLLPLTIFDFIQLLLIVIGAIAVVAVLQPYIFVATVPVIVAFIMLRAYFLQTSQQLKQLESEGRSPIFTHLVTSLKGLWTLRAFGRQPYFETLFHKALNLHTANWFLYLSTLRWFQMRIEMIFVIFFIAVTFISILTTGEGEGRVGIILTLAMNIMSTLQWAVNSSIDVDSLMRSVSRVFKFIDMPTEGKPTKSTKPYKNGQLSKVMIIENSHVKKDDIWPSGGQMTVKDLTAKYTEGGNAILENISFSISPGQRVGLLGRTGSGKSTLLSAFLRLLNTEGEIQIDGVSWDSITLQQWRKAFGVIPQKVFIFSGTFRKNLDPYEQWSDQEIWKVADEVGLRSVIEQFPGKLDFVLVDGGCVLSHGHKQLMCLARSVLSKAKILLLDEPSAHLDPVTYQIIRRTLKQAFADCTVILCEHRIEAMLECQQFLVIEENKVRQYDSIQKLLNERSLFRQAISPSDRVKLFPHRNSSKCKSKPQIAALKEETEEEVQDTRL

HBE2 Activity at 3 μM (%), +++ (+++ is >60+):
Cc1cccc(C)c1-c1cc2nc(n1)NS(=O)(=O)c1cccc(c1)C(=O)N(Cc1cncc(N3CCCC[C@H]3C)n1)[C@H](CC1CC(C)(C)C1)CO2 [Compound 1901]
Cc1cccc(C)c1-c1cc2nc(n1)NS(=O)(=O)c1cccc(c1)C(=O)N(Cc1cncc(N(C)CC(C)C)n1)[C@H](COC1CC1)CO2 [Compound 1903]
Cc1cccc(C)c1-c1cc2nc(n1)NS(=O)(=O)c1cccc(c1)C(=O)N(Cc1cncc(N(C)C3CC4(CC4)C3)n1)[C@H](COC1CC1)CO2 [Compound 1904]
Cc1cccc(C)c1-c1cc2nc(n1)NS(=O)(=O)c1cccc(c1)C(=O)N(Cc1cncc(N(C)C3CC(F)(F)C3)n1)[C@H](COC1CC1)CO2 [Compound 1905]
Cc1cccc(C)c1-c1cc2nc(n1)NS(=O)(=O)c1cccc(c1)C(=O)N(Cc1cncc(N(C)[C@H]3C[C@@H](F)C3)n1)[C@H](COC1CC1)CO2 [Compound 1906]
Cc1cccc(C)c1-c1cc2nc(n1)NS(=O)(=O)c1cccc(c1)C(=O)N(Cc1cncc(N(C)[C@H]3C[C@H](F)C3)n1)[C@H](COC1CC1)CO2 [Compound 1907]
Cc1cccc(C)c1-c1cc2nc(n1)NS(=O)(=O)c1cccc(c1)C(=O)N(Cc1cncc(N3CCCC[C@H]3C)n1)[C@H](COC1CC1)CO2 [Compound 1908]
CCn1c(C)cc2ncc(CN3C(=O)c4cccc(c4)S(=O)(=O)Nc4nc(cc(-c5c(C)cccc5C)n4)OC[C@H]3CC(C)(C)C)nc21 [Compound 1910]
CCc1cc2ncc(CN3C(=O)c4cccc(c4)S(=O)(=O)Nc4nc(cc(-c5c(C)cccc5C)n4)OC[C@H]3CC(C)(C)C)nc2n1C [Compound 1911]
Cc1cccc(C)c1-c1cc2nc(n1)NS(=O)(=O)c1cccc(c1)C(=O)N(Cc1cncc(N(C)[C@H]3C[C@H](F)C3)n1)[C@H](CCC(C)C)CO2 [Compound 1914]
Cc1cccc(C)c1-c1cc2nc(n1)NS(=O)(=O)c1cccc(c1)C(=O)N(Cc1cncc(N(C)[C@H]3C[C@@H](F)C3)n1)[C@H](CCC1CC1)CO2 [Compound 1915]
Cc1cccc(C)c1-c1cc2nc(n1)NS(=O)(=O)c1cccc(c1)C(=O)N(Cc1cncc(N(C)[C@H]3C[C@H](F)C3)n1)[C@H](CCC1CC1)CO2 [Compound 1916]
Cc1cccc(C)c1-c1cc2nc(n1)NS(=O)(=O)c1cccc(c1)C(=O)N(Cc1cncc(N3[C@H](C)CC[C@@H]3C)n1)[C@H](CCC(C)(C)C)CO2 [Compound 1917]
Cc1cccc(C)c1-c1cc2nc(n1)NS(=O)(=O)c1cccc(c1)C(=O)N(Cc1cncc(N3CC[C@H]3C)n1)[C@H](COC1CC1)CO2 [Compound 1918]
Cc1cccc(C)c1-c1cc2nc(n1)NS(=O)(=O)c1cccc(c1)C(=O)N(Cc1cnc3cc(C(C)C)n(C)c3n1)[C@H](COC(C)C)CO2 [Compound 1919]
Cc1cccc(C)c1-c1cc2nc(n1)NS(=O)(=O)c1cccc(c1)C(=O)N(Cc1cncc(N3CC[C@@H]4CC[C@@H]43)n1)[C@H](CCC1CC1)CO2 [Compound 1922]
Cc1cccc(C)c1-c1cc2nc(n1)NS(=O)(=O)c1cccc(n1)C(=O)N(Cc1cncc(N(C)C3CCC3)c1)[C@H](CC(C)(C)C)CO2 [Compound 1924]
CCN(c1cncc(CN2C(=O)c3cccc(c3)S(=O)(=O)Nc3nc(cc(-c4c(C)cccc4C)n3)OC[C@H]2COC2CC2)n1)C1CCC1 [Compound 1925]
Cc1cccc(C)c1-c1cc2nc(n1)NS(=O)(=O)c1cccc(c1)C(=O)N(Cc1cncc(N3CC[C@H]3C)n1)[C@H](COC(C)C)CO2 [Compound 1926]
Cc1cccc(C)c1-c1cc2nc(n1)NS(=O)(=O)c1cccc(c1)C(=O)N(Cc1cncc(N(C)C3CCC3)c1)[C@H](CC(C)(C)C)CO2 [Compound 1927]
Cc1cccc(C)c1-c1cc2nc(n1)NS(=O)(=O)c1cccc(c1)C(=O)N(Cc1cc(N)cc(N(C)C3CCC3)n1)[C@H](CC(C)(C)C)CO2 [Compound 1928]
Cc1cccc(C)c1-c1cc2nc(n1)NS(=O)(=O)c1cccc(c1)C(=O)N(Cc1cc(NC(=O)OC(C)(C)C)cc(N(C)C3CCC3)n1)[C@H](CC(C)(C)C)CO2 [Compound 1929]
Cc1cccc(C)c1-c1cc2nc(n1)NS(=O)(=O)c1cccc(c1)C(=O)N(Cc1ccc3nc(C(C)C)n(C)c3n1)[C@H](COC(C)C)CO2 [Compound 1930]
Cc1cccc(C)c1-c1cc2nc(n1)NS(=O)(=O)c1cccc(c1)C(=O)N(Cc1cnc3cc(C(C)C)n(C)c3n1)[C@H](C[C@H]1CCCOC1)CO2 [Compound 1931]
CCn1c(C(C)C)cc2ncc(CN3C(=O)c4cccc(c4)S(=O)(=O)Nc4nc(cc(-c5c(C)cccc5C)n4)OC[C@H]3COC(C)C)nc21 [Compound 1933]
Cc1cccc(C)c1-c1cc2nc(n1)NS(=O)(=O)c1cccc(c1)C(=O)N(Cc1cnc3cc(C(C)C)n(C)c3n1)[C@H](CC1CCCCC1)CO2 [Compound 1934]
CO[C@H](C)[C@@H]1CCCN1c1cncc(CN2C(=O)c3cccc(c3)S(=O)(=O)Nc3nc(cc(-c4c(C)cccc4C)n3)OC[C@H]2CCC(C)(C)C)n1 [Compound 1935]
CO[C@@H](C)[C@@H]1CCCN1c1cncc(CN2C(=O)c3cccc(c3)S(=O)(=O)Nc3nc(cc(-c4c(C)cccc4C)n3)OC[C@H]2CCC(C)(C)C)n1 [Compound 1936]
Cc1cccc(C)c1-c1cc2nc(n1)NS(=O)(=O)c1cccc(c1)C(=O)N(Cc1cncc(N3CCC[C@H]3C)n1)[C@H](COC(C)C)CO2 [Compound 1937]
Cc1cccc(C)c1-c1cc2nc(n1)NS(=O)(=O)c1cc(n(C)n1)C(=O)N(Cc1cncc(N(C)C3CCC3)n1)[C@H](CC(C)(C)C)CO2 [Compound 1944]
Cc1cccc(C)c1-c1cc2nc(n1)NS(=O)(=O)c1cc(n(C)n1)C(=O)N(Cc1cncc(N3CCC[C@H]3C)n1)[C@H](CC(C)(C)C)CO2 [Compound 1945]
Cc1cccc(C)c1-c1cc2nc(n1)NS(=O)(=O)c1cccc(c1)C(=O)N(Cc1cncc(N(C)C3CC(F)(F)C3)n1)[C@H](COC(C)C)CO2 [Compound 1946]
